Article PMC9388626, “STUB1 is an intracellular checkpoint for interferon gamma sensing” (Scientific Reports, 2022)

Experiments:
[1] = test system: B16-F10 cells; assay: Flow cytometry, surface IFNGR1 on CRISPR-edited cells; format: cell-based, murine; conditions: for Surface IFNGR1 relative to Parental (Fig. 2c): Parental = 1.00
Protocol: Parental, CRISPR-edited or biologic-overexpressed tumour cells were seeded in a cell density of 60,000 (B16-F10), 150,000 (CT26), 100,000 (A375), or 200,000 (A549) per well in 12-well plate filled with 0.8 ml culture media + 10% FBS. After overnight incubation, the culture media were replaced with 1 ml fresh media supplemented with 10% FBS and the designated concentration of the recombinant mouse IFNγ (R&D Systems, #485-MI-100) or recombinant human IFNγ (R&D Systems, #285-IF-100). The cells were stimulated with the cytokine for 24 h before they were harvested by trypsinization for flow cytometry, western blot, or qPCR analysis (6 h treatment).
(§1) Cells were dissociated from the wells with 0.25% trypsin (Gibco, 25200056). After rinsing with 0.5 ml PBS, each sample was stained with the LIVE/DEAD Fixable Aqua dead cell staining solution (Life Technologies, L34957) in 100 µl PBS (1:1000 dilution) for 15 min at 4 °C. After rinsing with 2 × 0.5 ml PBS, each sample was stained with the corresponding primary antibody-dye conjugates diluted in 100 µl Pharmingen stain buffer (BD Biosciences, #554657). After 1 h staining at 4 °C, the cells were rinsed with 2 × 2 ml Pharmingen stain buffer and fixed with 4.21% (w/w) formaldehyde (BD Biosciences, #554655). Cells were analyzed on LSRFortessa X-20 (BD Biosciences) with appropiate fluorescence compensation. The data were analyzed using FlowJo. Cells were gated based on FSC and SSC. Single cells were selected using FSC-A and FSC-H and viable cells were selected using LIVE/DEAD signal. Primary antibodies used were: H-2K^b/H-2D^b (FITC, Biolegend, #114606, 1:50 dilution), HLA-A,B,C (FITC, Biolegend, #311404, 1:100 dilution), mouse IFNGR1 (PE, Invitrogen, #12-1191-82, 1:50 dilution), human IFNGR1 (PE, Miltenyi, #130-125-851, 1:50 dilution), mouse IL1R1 (APC, Biolegend, #113509, 1:20 dilution), mouse IL6R (APC, Biolegend, #115812, 1:20 dilution), mouse IFNAR1 (APC, Biolegend, #127314, 1:20 dilution), and mouse GP130 (PE, Biolegend, #149404, 1:100 dilution).

[2] = test system: B16-F10 cells; assay: Flow cytometry, surface MHC-I on CRISPR-edited cells with IFNγ; format: cell-based, murine; conditions: for Surface MHC-I relative to Parental (Fig. 1c): Parental = 1.00
Protocol: Parental, CRISPR-edited or biologic-overexpressed tumour cells were seeded in a cell density of 60,000 (B16-F10), 150,000 (CT26), 100,000 (A375), or 200,000 (A549) per well in 12-well plate filled with 0.8 ml culture media + 10% FBS. After overnight incubation, the culture media were replaced with 1 ml fresh media supplemented with 10% FBS and the designated concentration of the recombinant mouse IFNγ (R&D Systems, #485-MI-100) or recombinant human IFNγ (R&D Systems, #285-IF-100). […]
as §1

## gStub1 #1 (guide GCATTGCTAAGAAGAAGCGC; chemistry not given here)
[1]; IFNg 0.01 ng/ml, replicate 1
  Surface IFNGR1 (Fig. 2b): 4507
  Surface IFNGR1 relative to Parental (Fig. 2c): 2.35
[1]; IFNg 0.01 ng/ml, replicate 2
  Surface IFNGR1 (Fig. 2b): 4382
  Surface IFNGR1 relative to Parental (Fig. 2c): 2.34
[1]; IFNg 0.01 ng/ml, replicate 3
  Surface IFNGR1 (Fig. 2b): 3988
  Surface IFNGR1 relative to Parental (Fig. 2c): 2.16
[1]; IFNg 0.03 ng/ml, replicate 1
  Surface IFNGR1 (Fig. 2b): 4026
  Surface IFNGR1 relative to Parental (Fig. 2c): 1.83
[1]; IFNg 0.03 ng/ml, replicate 2
  Surface IFNGR1 (Fig. 2b): 3680
  Surface IFNGR1 relative to Parental (Fig. 2c): 1.69
[1]; IFNg 0.03 ng/ml, replicate 3
  Surface IFNGR1 (Fig. 2b): 3566
  Surface IFNGR1 relative to Parental (Fig. 2c): 2.17
[1]; IFNg 0.10 ng/ml, replicate 1
  Surface IFNGR1 (Fig. 2b): 4027
  Surface IFNGR1 relative to Parental (Fig. 2c): 2.07
[1]; IFNg 0.10 ng/ml, replicate 2
  Surface IFNGR1 (Fig. 2b): 3862
  Surface IFNGR1 relative to Parental (Fig. 2c): 2.28
[1]; IFNg 0.10 ng/ml, replicate 3
  Surface IFNGR1 (Fig. 2b): 3601
  Surface IFNGR1 relative to Parental (Fig. 2c): 2.06
[1]; IFNg 0.30 ng/ml, replicate 1
  Surface IFNGR1 (Fig. 2b): 3595
  Surface IFNGR1 relative to Parental (Fig. 2c): 1.70
[1]; IFNg 0.30 ng/ml, replicate 2
  Surface IFNGR1 (Fig. 2b): 3609
  Surface IFNGR1 relative to Parental (Fig. 2c): 2.03
[1]; IFNg 0.30 ng/ml, replicate 3
  Surface IFNGR1 (Fig. 2b): 3263
  Surface IFNGR1 relative to Parental (Fig. 2c): 1.89
[1]; IFNg 1.00 ng/ml, replicate 1
  Surface IFNGR1 (Fig. 2b): 3107
  Surface IFNGR1 relative to Parental (Fig. 2c): 1.68
[1]; IFNg 1.00 ng/ml, replicate 2
  Surface IFNGR1 (Fig. 2b): 3061
  Surface IFNGR1 relative to Parental (Fig. 2c): 1.74
[1]; IFNg 1.00 ng/ml, replicate 3
  Surface IFNGR1 (Fig. 2b): 2676
  Surface IFNGR1 relative to Parental (Fig. 2c): 1.66
[1]; IFNg Nil, replicate 1
  Surface IFNGR1 (Fig. 2b): 4564
  Surface IFNGR1 relative to Parental (Fig. 2c): 2.27
[1]; IFNg Nil, replicate 2
  Surface IFNGR1 (Fig. 2b): 4378
  Surface IFNGR1 relative to Parental (Fig. 2c): 2.36
[1]; IFNg Nil, replicate 3
  Surface IFNGR1 (Fig. 2b): 4200
  Surface IFNGR1 relative to Parental (Fig. 2c): 2.25
[2]; IFNg 0.01 ng/ml, replicate 1
  Surface MHC-I (Fig. 1b): 389
  Surface MHC-I relative to Parental (Fig. 1c): 1.67
[2]; IFNg 0.01 ng/ml, replicate 2
  Surface MHC-I (Fig. 1b): 629
  Surface MHC-I relative to Parental (Fig. 1c): 1.88
[2]; IFNg 0.01 ng/ml, replicate 3
  Surface MHC-I (Fig. 1b): 890
  Surface MHC-I relative to Parental (Fig. 1c): 2.53
[2]; IFNg 0.01 ng/ml, replicate 4
  Surface MHC-I (Fig. 1b): 1203
  Surface MHC-I relative to Parental (Fig. 1c): 4.12
[2]; IFNg 0.03 ng/ml, replicate 1
  Surface MHC-I (Fig. 1b): 1830
  Surface MHC-I relative to Parental (Fig. 1c): 6.85
[2]; IFNg 0.03 ng/ml, replicate 2
  Surface MHC-I (Fig. 1b): 1489
  Surface MHC-I relative to Parental (Fig. 1c): 3.84
[2]; IFNg 0.03 ng/ml, replicate 3
  Surface MHC-I (Fig. 1b): 2317
  Surface MHC-I relative to Parental (Fig. 1c): 4.36
[2]; IFNg 0.03 ng/ml, replicate 4
  Surface MHC-I (Fig. 1b): 3040
  Surface MHC-I relative to Parental (Fig. 1c): 6.59
[2]; IFNg 0.10 ng/ml, replicate 1
  Surface MHC-I (Fig. 1b): 1622
  Surface MHC-I relative to Parental (Fig. 1c): 4.52
[2]; IFNg 0.10 ng/ml, replicate 2
  Surface MHC-I (Fig. 1b): 2825
  Surface MHC-I relative to Parental (Fig. 1c): 4.07
[2]; IFNg 0.10 ng/ml, replicate 3
  Surface MHC-I (Fig. 1b): 4165
  Surface MHC-I relative to Parental (Fig. 1c): 3.06
[2]; IFNg 0.10 ng/ml, replicate 4
  Surface MHC-I (Fig. 1b): 5343
  Surface MHC-I relative to Parental (Fig. 1c): 3.53
[2]; IFNg 0.30 ng/ml, replicate 1
  Surface MHC-I (Fig. 1b): 3870
  Surface MHC-I relative to Parental (Fig. 1c): 4.44
[2]; IFNg 0.30 ng/ml, replicate 2
  Surface MHC-I (Fig. 1b): 3946
  Surface MHC-I relative to Parental (Fig. 1c): 3.12
[2]; IFNg 0.30 ng/ml, replicate 3
  Surface MHC-I (Fig. 1b): 5512
  Surface MHC-I relative to Parental (Fig. 1c): 2.33
[2]; IFNg 0.30 ng/ml, replicate 4
  Surface MHC-I (Fig. 1b): 7772
  Surface MHC-I relative to Parental (Fig. 1c): 2.83
[2]; IFNg 1.00 ng/ml, replicate 1
  Surface MHC-I (Fig. 1b): 6610
  Surface MHC-I relative to Parental (Fig. 1c): 2.73
[2]; IFNg 1.00 ng/ml, replicate 2
  Surface MHC-I (Fig. 1b): 4959
  Surface MHC-I relative to Parental (Fig. 1c): 2.67
[2]; IFNg 1.00 ng/ml, replicate 3
  Surface MHC-I (Fig. 1b): 6900
  Surface MHC-I relative to Parental (Fig. 1c): 2.19
[2]; IFNg 1.00 ng/ml, replicate 4
  Surface MHC-I (Fig. 1b): 9888
  Surface MHC-I relative to Parental (Fig. 1c): 2.56
[2]; IFNg Nil, replicate 1
  Surface MHC-I (Fig. 1b): 267
  Surface MHC-I relative to Parental (Fig. 1c): 0.97
[2]; IFNg Nil, replicate 2
  Surface MHC-I (Fig. 1b): 322
  Surface MHC-I relative to Parental (Fig. 1c): 1.05
[2]; IFNg Nil, replicate 3
  Surface MHC-I (Fig. 1b): 345
  Surface MHC-I relative to Parental (Fig. 1c): 1.07
[2]; IFNg Nil, replicate 4
  Surface MHC-I (Fig. 1b): 296
  Surface MHC-I relative to Parental (Fig. 1c): 1.15
